# Test results from paper PMC11632778, “Adaptive Synthesis, Supramolecular Behavior, and Biological Properties of Amphiphilic Carbosilane-Phosphonium Dendrons with Tunable Structure” (Biomacromolecules, 2024).
# Read-outs that look alike come from different tables or passages of the source.
# Legend:
# [1] = system: S. aureus MRSA—clinical isolate C1926; assay: Microdilution broth MIC; format: cell-based; details: Staphylococcus aureus, 24 h
# [2] = system: anti-miR-21 oligo(2′-O-methylribonucleotide); assay: DLS of dendriplexes with anti-miR-21 oligonucleotide; format: physicochemical; details: for mean diameter of dendriplex: 0.9% NaCl
# Method: Dendriplexes were characterized by DLS using Zetasizer Nano-S (Malvern Panalytical, UK) equipped with a 632.8 nm laser, applying detection angle 173°. Mean diameters from the intensity-weighted size distribution are given. Average results from three consecutive sets of measurements generated by Malvern Zetasizer Software version 7.13 are presented.
# Amphiphilic dendrons (1.5–73 μM) were mixed with the anti-miR-21:5′-m([…]) (500 nM) in 0.9% NaCl solution in milli-Q water. The dendrons’ concentrations were chosen to attain the charge ratio (CR, the ratio of cations over anions in the sample) of 1.2, 2.5, 5, 10, or 20. The samples were incubated for 15 min at rt prior to measurements.
# S. aureus CCM 4516 = assay: Microdilution broth MIC; format: cell-based; details: Staphylococcus aureus
# Method: (§1) In vitro antibacterial activity of the prepared amp-DDNs (DnP6-1C12, DnP3-1C12, DnP3-2C12, and DnP3-2C18) was tested on a panel of four G+ (Staphylococcus aureus CCM 4516, methicillin-resistant S. aureus clinical isolate C1923, Staphylococcus epidermidis clinical isolate C1936, and vancomycin-resistant Enterococcus faecium clinical isolate S2484) and four G-bacterial strains (Escherichia coli K12, CCM 7929, E. coli clinical isolate A1235, extended-spectrum β-lactamase-producing (ESBL+) Klebsiella pneumoniae clinical isolate C1914, and multiresistant Pseudomonas aeruginosa clinical isolate A1245). CCM collection strains were obtained from the Czech Collection of Microorganisms. All clinical isolates were obtained during routine procedures in the clinical laboratory at the University Hospital Hradec Králové. All strains were stored at −70 °C in the Cryobank according to the manufacturer’s instructions. Subsequently, when needed, each bacterial strain was inoculated and cultivated on Mueller–Hinton agar (HiMedia, Cadersky-Envitek, Prague, Czech Republic).
# (§2) The antibacterial susceptibility was determined by a microdilution broth method according to standard M07-A10,[55] and the optimized protocol has been published previously.[56],[57] Briefly, Mueller–Hinton broth (MHB) adjusted to pH 7.4 (±0.2) was used as the test medium. […] The wells of the microdilution tray contained 200 μL of the MHB with 2-fold serial dilutions of the compounds and were inoculated with 10 μL of the bacterial suspension. The bacterial suspensions were controlled densitometrically to reach 1.5 × 10^8 viable CFU per 1 mL. The minimum inhibitory concentration (MIC) values, defined as 95% inhibition of bacterial growth, were determined after 24 h of incubation at 35 °C ± 1 °C.
# [3] = system: P. aeruginosa MR—clinical isolate A1245; assay: Microdilution broth MIC; format: cell-based; details: Pseudomonas aeruginosa, 24 h
# Method: as §1, §2
# E. coli K12, CCM 7929 = assay: Microdilution broth MIC; format: cell-based; details: Escherichia coli
# Method: as §1, §2
# [4] = system: E. coli—clinical isolate A1235; assay: Microdilution broth MIC; format: cell-based; details: Escherichia coli, 24 h
# Method: as §1, §2
# [5] = system: K. pneumoniae ESBL+—clinical isolate C1914; assay: Microdilution broth MIC; format: cell-based; details: Klebsiella pneumoniae, 24 h
# Method: as §1, §2
# [6] = system: E. faecium VRE—clinical isolate S2484; assay: Microdilution broth MIC; format: cell-based; details: Enterococcus faecium, 24 h
# Method: as §1, §2
# [7] = system: S. epidermidis—clinical isolate C1936; assay: Microdilution broth MIC; format: cell-based; details: Staphylococcus epidermidis, 24 h
# Method: as §1, §2
# [8] = Dynamic light scattering (DLS/MADLS) of micelles in physiological solution; format: physicochemical; details: for PDI / mean size (DLS, intensity-weighted): 1.0 mM dendron, 0.9% NaCl; for mean size of the second population (MADLS): aggregates; for mean diameter of the smaller particles (MADLS): isolated micelles
# Method: The size of micelles and micellar aggregates was estimated by the dynamic light scattering (DLS) method using NanoBrook OMNI ZetaPALS (Brookhaven Instruments, USA) with a detection angle 90° and 640 nm laser. The presented diameters are mean values from the intensity-weighted size distribution. The composition of the samples was as follows: dendron (1.0 mM) and NaCl (0.9%) in deionized water. The solutions were sonicated for 30 min, filtered through 0.45 μm Nylon syringe filters (Avantor, USA), placed in standard polystyrene cuvettes (BI-SCP, Brookhaven Instruments), and stored at 4 °C. All measurements were conducted at 25 °C. Measurement time was set to 5 min, and each measurement was repeated 5 times. The analysis of data was performed using Brookhaven Instruments software Particle Solutions v3.6.07136.
# MADLS and size dependence on concentration and pH were measured on Zetasizer Ultra Red (Malvern Panalytical, UK) equipped with a 632.8 nm laser, applying detection angles 12.78°, 90°, and 174.7° in the case of MADLS measurements and 12.78° for size dependence measurements. MADLS and concentration dependence were measured in DTS0012 polystyrene cuvettes (Malvern Panalytical, UK); pH dependence was studied by acidobasic titration in DTS1070 folded capillary Zeta cell, using MPT-3 Multipurpose Titrator and DEG0003 Auto Degasser (all Malvern Panalytical, UK). The concentration dependence measurement started at 1.0 mM and the samples were diluted 2-fold until the minimum concentration 0.06 mM. For each concentration, the measurement was repeated 3 times giving 15 measurements in total. The pH dependence measurement started at pH 12; the titration was performed with a step of 2 and at each step, the measurement was repeated 3 times, giving 18 measurements in total. Malvern Panalytical software ZS Xplorer version 3.3.1.5 was used for the analysis of data.
# [9] = set-up: method as in doi:10.1016/j.colsurfa.2004.10.066; details: standard cationic surfactant; cited from earlier work
# [10] = CCM4516, 24 h, 95% inhibition of growth, read-out: MIC
# [11] = CCM7929, 24 h, 95% inhibition of growth, read-out: MIC
# [12] = 95% inhibition of growth, read-out: MIC
# [13] = after 75 day testing period, stored at 4 °C
SMILES,MIC [1],PI of dendriplex ([2]; CR 1.2),"mean diameter of dendriplex ([2]; CR 1.2, anti-miR-21 500 nM)",PI of dendriplex ([2]; CR 2.5),"mean diameter of dendriplex ([2]; CR 2.5, anti-miR-21 500 nM)",PI of dendriplex ([2]; CR 5),"mean diameter of dendriplex ([2]; CR 5, anti-miR-21 500 nM)",PI of dendriplex ([2]; CR 10),"mean diameter of dendriplex ([2]; CR 10, anti-miR-21 500 nM)",MIC [3],MIC [5],MIC [6],"MIC (S. aureus CCM 4516; CCM4516, 24 h)","MIC (E. coli K12, CCM 7929; CCM7929, 24 h)",MIC [4],MIC [7],other results
CCCCCCCCCCCCNC(=O)c1ccc(OCCC[Si](CCCSCC(=O)NCCC[P+](c2ccccc2)(c2ccccc2)c2ccccc2)(CCCSCC(=O)NCCC[P+](c2ccccc2)(c2ccccc2)c2ccccc2)CCCSCC(=O)NCCC[P+](c2ccccc2)(c2ccccc2)c2ccccc2)cc1 [DnP3-1C12],3.13 µM,0.07,0.14 μm,0.2,0.9 μm,0.3,> 1 μm,0.1,> 1 μm,> 12.5 µM,> 12.5 µM,1.15 µM,–,–,–,–,"MIC (S. aureus CCM 4516; [10]): 3.13 µM; MIC (E. coli K12, CCM 7929; [11]): 6.25 µM; MIC [4, 12]: 12.5 µM; MIC [7, 12]: 1.56 µM"
CCCCCCCCCCCCCCCCCCNC(=O)c1ccc(OCCC[Si](CCCSCC(=O)NCCC[P+](c2ccccc2)(c2ccccc2)c2ccccc2)(CCCSCC(=O)NCCC[P+](c2ccccc2)(c2ccccc2)c2ccccc2)CCCSCC(=O)NCCC[P+](c2ccccc2)(c2ccccc2)c2ccccc2)cc1 [DnP3-1C18],6.25 µM,0.14,0.23 μm,0.2,0.5 μm,0.4,> 1 μm,0.3,> 1 μm,> 6.25 µM,> 6.25 µM,6.25 µM,–,–,–,–,"MIC (S. aureus CCM 4516; [10]): 6.25 µM; MIC (E. coli K12, CCM 7929; [11]): > 6.25 µM; MIC [4, 12]: > 6.25 µM; MIC [7, 12]: 3.13 µM"
CCCCCCCCCCCCNC(=O)c1cc(OCCC[Si](CCCSCC(=O)NCCC[P+](c2ccccc2)(c2ccccc2)c2ccccc2)(CCCSCC(=O)NCCC[P+](c2ccccc2)(c2ccccc2)c2ccccc2)CCCSCC(=O)NCCC[P+](c2ccccc2)(c2ccccc2)c2ccccc2)cc(C(=O)NCCCCCCCCCCCC)c1 [DnP3-2C12],> 12.5 µM,0.11,0.13 μm,0.2,0.8 μm,0.3,1.0 μm,0.14,0.18 μm,> 12.5 µM,> 12.5 µM,> 12.5 µM,> 12.5 µM,> 12.5 µM,> 12.5 µM,> 12.5 µM,"PDI [8]: ≈ 0.2; mean size (DLS, intensity-weighted) ([8]; 25 °C, start of testing period): 21 nm; mean size (DLS, intensity-weighted) [8, 13]: 25 nm; mean size of the second population (MADLS) [8]: 37 nm; mean diameter of the smaller particles (MADLS) [8]: 10.0 nm; PI of dendriplex ([2]; CR 20): 0.17; mean diameter of dendriplex ([2]; CR 20, anti-miR-21 500 nM): 0.14 μm"
CCCCCCCCCCCCCCCCCCNC(=O)c1cc(OCCC[Si](CCCSCC(=O)NCCC[P+](c2ccccc2)(c2ccccc2)c2ccccc2)(CCCSCC(=O)NCCC[P+](c2ccccc2)(c2ccccc2)c2ccccc2)CCCSCC(=O)NCCC[P+](c2ccccc2)(c2ccccc2)c2ccccc2)cc(C(=O)NCCCCCCCCCCCCCCCCCC)c1 [DnP3-2C18],> 12.5 µM,0.12,0.20 μm,0.2,0.9 μm,0.3,> 1 μm,0.23,0.22 μm,> 12.5 µM,> 12.5 µM,> 12.5 µM,> 12.5 µM,> 12.5 µM,> 12.5 µM,> 12.5 µM,"PDI [8]: ≈ 0.2; mean size (DLS, intensity-weighted) ([8]; 25 °C, start of testing period): 14 nm; mean size (DLS, intensity-weighted) [8, 13]: 26 nm; mean size of the second population (MADLS) [8]: 80 nm; mean diameter of the smaller particles (MADLS) [8]: 11.8 nm; PI of dendriplex ([2]; CR 20): 0.29; mean diameter of dendriplex ([2]; CR 20, anti-miR-21 500 nM): 0.17 μm"
CCCCCCCCCCCCNC(=O)c1cc(OCCC[Si](CCCSCC(=O)NCCC[P+](c2ccccc2)(c2ccccc2)c2ccccc2)(CCCSCC(=O)NCCC[P+](c2ccccc2)(c2ccccc2)c2ccccc2)CCCSCC(=O)NCCC[P+](c2ccccc2)(c2ccccc2)c2ccccc2)cc(OCCC[Si](CCCSCC(=O)NCCC[P+](c2ccccc2)(c2ccccc2)c2ccccc2)(CCCSCC(=O)NCCC[P+](c2ccccc2)(c2ccccc2)c2ccccc2)CCCSCC(=O)NCCC[P+](c2ccccc2)(c2ccccc2)c2ccccc2)c1 [DnP6-1C12],6.25 µM,0.08,0.22 μm,0.2,0.8 μm,0.10,0.8 μm,0.05,0.8 μm,≥ 12.5 µM,12.5 µM,3.13 µM,6.25 µM,6.25 µM,6.25 µM,1.56 µM,–
CCCCCCCCCCCCCCCCCCNC(=O)c1cc(OCCC[Si](CCCSCC(=O)NCCC[P+](c2ccccc2)(c2ccccc2)c2ccccc2)(CCCSCC(=O)NCCC[P+](c2ccccc2)(c2ccccc2)c2ccccc2)CCCSCC(=O)NCCC[P+](c2ccccc2)(c2ccccc2)c2ccccc2)cc(OCCC[Si](CCCSCC(=O)NCCC[P+](c2ccccc2)(c2ccccc2)c2ccccc2)(CCCSCC(=O)NCCC[P+](c2ccccc2)(c2ccccc2)c2ccccc2)CCCSCC(=O)NCCC[P+](c2ccccc2)(c2ccccc2)c2ccccc2)c1 [DnP6-1C18],6.25 µM,0.05,0.18 μm,0.3,> 1 μm,0.3,> 1 μm,0.3,> 1 μm,> 6.25 µM,> 6.25 µM,6.25 µM,6.25 µM,> 6.25 µM,> 6.25 µM,6.25 µM,–
CCCCCCCCCCCCCCCC[N+](C)(C)C [cetyltrimethylammonium bromide],–,–,–,–,–,–,–,–,–,–,–,–,–,–,–,–,CMC [9]: around 1 mM
